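Growth conditions: 96-well plates. Treatment: test compound, 48 hours, 5 concentrations. Analysis: linear interpolation between bracketing concentrations; unreached endpoints set to highest concentration. Here, GI50 denotes the concentration required for 50% inhibition of growth. Definition used: TGI = concentration required for complete inhibition of growth.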
How the values were obtained:
Assay in all cases: inhibition of tumour cell growth, NCI panel, 48 h
786-0 renal = system: 786-0 renal
A549 NSCLC = system: A549 NSCLC
HOP-62 NSCLC = system: HOP-62 NSCLC
MALME-3M melanoma = system: MALME-3M melanoma
MOLT-4 leukemia = system: MOLT-4 leukemia
OVCAR-3 ovarian = system: OVCAR-3 ovarian
SNB-75 CNS = system: SNB-75 CNS
SR leukemia = system: SR leukemia

COc1ccc2c(c1OC)-c1c(c3ccc([N+](=O)[O-])cc3c(=O)n1CCCBr)C2=O
GI50 (786-0 renal): 21.6 µM | TGI (786-0 renal): 52.1 µM | GI50 (A549 NSCLC): 42.4 µM | TGI (A549 NSCLC): > 100 µM | GI50 (HOP-62 NSCLC): 21.8 µM | TGI (HOP-62 NSCLC): 58.5 µM | GI50 (MALME-3M melanoma): 79.9 µM | TGI (MALME-3M melanoma): > 100 µM | GI50 (MOLT-4 leukemia): 18.9 µM | TGI (MOLT-4 leukemia): 52.7 µM | GI50 (OVCAR-3 ovarian): > 100 µM | TGI (OVCAR-3 ovarian): > 100 µM | GI50 (SNB-75 CNS): 26.8 µM | TGI (SNB-75 CNS): 60.6 µM | GI50 (SR leukemia): 4.67 µM | TGI (SR leukemia): > 100 µM

O=[N+]([O-])c1nccn1CC(O)CN1CCCCC1 (configuration not stated)
TGI (786-0 renal): > 100 µM | TGI (A549 NSCLC): > 100 µM | TGI (HOP-62 NSCLC): > 100 µM | TGI (MALME-3M melanoma): > 100 µM | TGI (MOLT-4 leukemia): > 100 µM | TGI (OVCAR-3 ovarian): > 100 µM | TGI (SNB-75 CNS): > 100 µM | TGI (SR leukemia): > 100 µM

CNNC(=N\S(=O)(=O)c1cc(C)c(Cl)cc1SCc1ccccc1)/N=C/c1ccc([N+](=O)[O-])s1
GI50 (786-0 renal): > 100 µM | TGI (786-0 renal): > 100 µM | GI50 (A549 NSCLC): 59.2 µM | TGI (A549 NSCLC): > 100 µM | GI50 (HOP-62 NSCLC): > 100 µM | TGI (HOP-62 NSCLC): > 100 µM | GI50 (MALME-3M melanoma): 1.18 µM | TGI (MALME-3M melanoma): > 64.2 µM | GI50 (MOLT-4 leukemia): > 100 µM | TGI (MOLT-4 leukemia): > 100 µM | GI50 (OVCAR-3 ovarian): > 44.1 µM | TGI (OVCAR-3 ovarian): > 100 µM | GI50 (SNB-75 CNS): > 100 µM | TGI (SNB-75 CNS): > 100 µM | GI50 (SR leukemia): 41.2 µM | TGI (SR leukemia): > 100 µM

O=C(Nc1ccc(-n2ccc3c(NC(=O)c4ccccc4)ncnc32)cc1)c1cccc(C(F)(F)F)c1
GI50 (786-0 renal): 2.91 µM | TGI (786-0 renal): 21.9 µM | GI50 (A549 NSCLC): 0.966 µM | TGI (A549 NSCLC): 21.1 µM | GI50 (HOP-62 NSCLC): 10.9 µM | TGI (HOP-62 NSCLC): 24.4 µM | GI50 (MALME-3M melanoma): 9.75 µM | TGI (MALME-3M melanoma): 26.1 µM | GI50 (MOLT-4 leukemia): 0.493 µM | TGI (MOLT-4 leukemia): 32.7 µM | GI50 (OVCAR-3 ovarian): 4.37 µM | TGI (OVCAR-3 ovarian): 20.9 µM | GI50 (SNB-75 CNS): 3.58 µM | TGI (SNB-75 CNS): 22.3 µM | GI50 (SR leukemia): 0.0678 µM | TGI (SR leukemia): > 32.5 µM

C=C/C(C)=C/C[C@]1(C)[C@H](C)[C@@H](OC(=O)CCC)[C@H](O)[C@@]23C(=C[C@H](OC)C[C@@H]12)[C@@H](OC(=O)CCC)O[C@H]3OC(C)=O
GI50 (786-0 renal): 0.287 µM | TGI (786-0 renal): 0.888 µM | GI50 (A549 NSCLC): 1.65 µM | TGI (A549 NSCLC): 3.62 µM | GI50 (HOP-62 NSCLC): 1.62 µM | TGI (HOP-62 NSCLC): 3.62 µM | GI50 (MALME-3M melanoma): 0.313 µM | TGI (MALME-3M melanoma): 1.03 µM | GI50 (MOLT-4 leukemia): 0.348 µM | TGI (MOLT-4 leukemia): 1.55 µM | GI50 (OVCAR-3 ovarian): 0.191 µM | TGI (OVCAR-3 ovarian): 0.4 µM | GI50 (SNB-75 CNS): 1.21 µM | TGI (SNB-75 CNS): 2.47 µM | GI50 (SR leukemia): 0.324 µM | TGI (SR leukemia): 1.49 µM

O=c1cc(-c2ccc(O)cc2)oc2cc(O[C@@H]3O[C@H](CO)[C@@H](O)[C@H](O)[C@H]3O)cc(O)c12
TGI (786-0 renal): > 100 µM | TGI (A549 NSCLC): > 100 µM | TGI (HOP-62 NSCLC): > 100 µM | TGI (MOLT-4 leukemia): > 100 µM | TGI (OVCAR-3 ovarian): > 100 µM | TGI (SNB-75 CNS): > 100 µM | TGI (SR leukemia): > 100 µM

C#CCNC(=S)N/N=C(\C)c1ccccn1
GI50 (786-0 renal): 0.354 µM | TGI (786-0 renal): > 100 µM | GI50 (A549 NSCLC): 1.18 µM | TGI (A549 NSCLC): > 100 µM | GI50 (HOP-62 NSCLC): 1.25 µM | TGI (HOP-62 NSCLC): 16 µM | GI50 (MALME-3M melanoma): 1.51 µM | TGI (MALME-3M melanoma): > 100 µM | GI50 (MOLT-4 leukemia): 0.126 µM | GI50 (OVCAR-3 ovarian): 0.0353 µM | TGI (OVCAR-3 ovarian): 19.4 µM | GI50 (SNB-75 CNS): 0.943 µM | TGI (SNB-75 CNS): > 23.7 µM | GI50 (SR leukemia): 0.328 µM | TGI (SR leukemia): 3.4 µM

O=c1c2cc(-c3ccccc3)sc2ncn1Cc1ccc(Cl)c(Cl)c1
GI50 (786-0 renal): 14.2 µM | TGI (786-0 renal): 43.3 µM | GI50 (A549 NSCLC): 18 µM | TGI (A549 NSCLC): > 100 µM | GI50 (HOP-62 NSCLC): 10.3 µM | TGI (HOP-62 NSCLC): 24.7 µM | GI50 (MOLT-4 leukemia): 18.9 µM | TGI (MOLT-4 leukemia): 54.9 µM | GI50 (OVCAR-3 ovarian): 15.8 µM | TGI (OVCAR-3 ovarian): 36.2 µM | GI50 (SNB-75 CNS): 18.1 µM | TGI (SNB-75 CNS): 48.7 µM | GI50 (SR leukemia): 5.14 µM | TGI (SR leukemia): 17.9 µM

CCC(C)Oc1nc2c(c(=O)n(C)c(=O)n2C)n1C (configuration not stated)
GI50 (786-0 renal): > 100 µM | TGI (786-0 renal): > 100 µM | GI50 (A549 NSCLC): > 100 µM | TGI (A549 NSCLC): > 100 µM | GI50 (HOP-62 NSCLC): > 100 µM | TGI (HOP-62 NSCLC): > 100 µM | GI50 (MALME-3M melanoma): > 100 µM | TGI (MALME-3M melanoma): > 100 µM | GI50 (MOLT-4 leukemia): > 100 µM | TGI (MOLT-4 leukemia): > 100 µM | GI50 (OVCAR-3 ovarian): > 100 µM | TGI (OVCAR-3 ovarian): > 100 µM | GI50 (SNB-75 CNS): > 100 µM | TGI (SNB-75 CNS): > 100 µM | GI50 (SR leukemia): > 100 µM | TGI (SR leukemia): > 100 µM

Cn1cccc1-c1cc(-c2ccccc2)[nH]c(=O)c1C#N
GI50 (786-0 renal): > 100 µM | TGI (786-0 renal): > 100 µM | GI50 (A549 NSCLC): > 100 µM | TGI (A549 NSCLC): > 100 µM | GI50 (HOP-62 NSCLC): > 100 µM | TGI (HOP-62 NSCLC): > 100 µM | GI50 (MALME-3M melanoma): > 100 µM | TGI (MALME-3M melanoma): > 100 µM | GI50 (MOLT-4 leukemia): 18.9 µM | TGI (MOLT-4 leukemia): 45.4 µM | GI50 (OVCAR-3 ovarian): > 100 µM | TGI (OVCAR-3 ovarian): > 100 µM | GI50 (SNB-75 CNS): 45.1 µM | TGI (SNB-75 CNS): > 100 µM

COc1cc2ncnc(-n3ncc4cc(NC(=O)Nc5ccc(Cl)c(Cl)c5)ccc43)c2cc1OC
GI50 (786-0 renal): 1.56 µM | TGI (786-0 renal): 3.52 µM | GI50 (A549 NSCLC): 2.69 µM | TGI (A549 NSCLC): 5.75 µM | GI50 (HOP-62 NSCLC): 1.91 µM | TGI (HOP-62 NSCLC): 3.76 µM | GI50 (MALME-3M melanoma): 1.72 µM | TGI (MALME-3M melanoma): 3.89 µM | GI50 (MOLT-4 leukemia): 2.04 µM | TGI (MOLT-4 leukemia): 11.4 µM | GI50 (OVCAR-3 ovarian): 1.92 µM | TGI (OVCAR-3 ovarian): 3.7 µM | GI50 (SNB-75 CNS): 1.24 µM | TGI (SNB-75 CNS): 3.41 µM | GI50 (SR leukemia): 2.75 µM | TGI (SR leukemia): > 100 µM

O=C(O)/C=C\C(=O)Nc1ccccn1
TGI (786-0 renal): > 100 µM | TGI (A549 NSCLC): > 100 µM | TGI (HOP-62 NSCLC): > 100 µM | TGI (MALME-3M melanoma): > 100 µM | TGI (MOLT-4 leukemia): > 100 µM | TGI (OVCAR-3 ovarian): > 100 µM | TGI (SNB-75 CNS): > 100 µM | TGI (SR leukemia): > 100 µM

Reference: PubChem BioAssay (NCI)
